PMC12748766, “Structural basis for human chondroitin sulfate chain polymerization” (Nature Communications, 2025)

Biological target: T1, CHSY3-CHPF complex (Homo sapiens, UniProt Q70JA7)
T1 construct: secreted luminal part of both chains (TM helix removed), HEK Freestyle 293-F; N-terminal RPTP sigma signal, SUMO, His6 cut with 3C; C-terminal Avi (CHSY3), 3C site and twin-Strep (CHPF); heterodimer, expected 165 kDa; with Chondroitin sulfate synthase 2
T1 sequence (Q70JA7 157-882): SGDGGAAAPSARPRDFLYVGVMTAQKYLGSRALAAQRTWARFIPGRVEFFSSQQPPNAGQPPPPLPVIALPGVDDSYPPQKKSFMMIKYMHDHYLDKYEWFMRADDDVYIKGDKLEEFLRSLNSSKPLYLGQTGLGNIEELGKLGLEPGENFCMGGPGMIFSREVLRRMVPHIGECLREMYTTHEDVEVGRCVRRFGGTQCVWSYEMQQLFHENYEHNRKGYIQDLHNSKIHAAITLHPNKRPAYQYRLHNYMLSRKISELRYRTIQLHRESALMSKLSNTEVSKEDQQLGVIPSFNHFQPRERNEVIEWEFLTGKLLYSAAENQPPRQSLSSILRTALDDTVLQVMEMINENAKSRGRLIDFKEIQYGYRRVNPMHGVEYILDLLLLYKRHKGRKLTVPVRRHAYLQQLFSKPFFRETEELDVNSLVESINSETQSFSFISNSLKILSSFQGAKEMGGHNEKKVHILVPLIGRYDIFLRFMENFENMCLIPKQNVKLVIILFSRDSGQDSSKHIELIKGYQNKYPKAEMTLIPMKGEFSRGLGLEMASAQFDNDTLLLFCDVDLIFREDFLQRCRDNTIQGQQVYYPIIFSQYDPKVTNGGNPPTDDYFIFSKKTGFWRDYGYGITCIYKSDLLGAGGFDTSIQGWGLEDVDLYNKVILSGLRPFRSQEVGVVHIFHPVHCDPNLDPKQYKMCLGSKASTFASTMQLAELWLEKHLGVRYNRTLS
T1 sequence (Q8IZ52 81-775 partner): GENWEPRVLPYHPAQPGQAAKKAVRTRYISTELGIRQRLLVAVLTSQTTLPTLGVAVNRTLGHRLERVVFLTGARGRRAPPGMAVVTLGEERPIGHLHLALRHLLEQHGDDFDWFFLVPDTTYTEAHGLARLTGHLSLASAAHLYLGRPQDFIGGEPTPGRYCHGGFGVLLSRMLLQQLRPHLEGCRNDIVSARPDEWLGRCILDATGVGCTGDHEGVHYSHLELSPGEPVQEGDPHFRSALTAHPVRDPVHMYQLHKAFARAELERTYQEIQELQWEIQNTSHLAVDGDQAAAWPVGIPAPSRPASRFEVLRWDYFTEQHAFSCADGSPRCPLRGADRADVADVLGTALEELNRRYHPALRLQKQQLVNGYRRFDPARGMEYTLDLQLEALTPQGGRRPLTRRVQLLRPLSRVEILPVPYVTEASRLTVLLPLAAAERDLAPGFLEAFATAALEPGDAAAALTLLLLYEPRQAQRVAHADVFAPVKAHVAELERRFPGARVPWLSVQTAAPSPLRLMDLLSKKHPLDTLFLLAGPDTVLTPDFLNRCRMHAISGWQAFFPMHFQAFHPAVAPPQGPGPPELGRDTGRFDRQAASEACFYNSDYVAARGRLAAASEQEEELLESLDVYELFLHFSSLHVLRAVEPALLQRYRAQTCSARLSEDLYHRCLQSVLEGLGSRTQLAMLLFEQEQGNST
Test: cryo-EM structure, […] A
Assay type: binding
Conditions: 10 mM UDP, Mn2+, pH 6.5; bound in N-terminal GT31 (GlcA-T) active site of CHSY3

## O=c1ccn([C@@H]2O[C@H](COP(=O)(O)OP(=O)(O)O)[C@@H](O)[C@H]2O)c(=O)[nH]1 [UDP]
  cryo-EM structure, 3.0 A: We identified one UDP molecule bound in the CHSY3 GlcA-T active site.
